Results reported in patent US7049314B2, “Cyclopentyl indole derivatives” (Bristol-Myers Squibb Company, priority 2002, dated 2006).
Like-named read-outs stand apart in the source and are kept apart here.

Assays:
[1] = target: T1, human serotonin transporters (Homo sapiens, UniProt P31645); experiment: Serotonin Transporter Binding Assay ([3H]-citalopram displacement, HEK-hSERT cell membranes)
T1 construct: expressed in transfected cells
Method: HEK-293 cells that stably express human serotonin transporters (HEK-hSERT cells) were grown at 37° C. in 5% CO2 as a monolayer in medium consisting of EMEM supplemented with 10% fetal bovine serum and G418 sulfate (500 μg/mL). To prepare membranes for radioligand binding experiments, cells were rinsed twice with phosphate-buffered saline (138 mM NaCl, 4.1 mM KCl, 5.1 mM Na2PO4, 1.5 mM […], 11.1 mM glucose, pH 7.4). Cells were transferred from plates to polypropylene tubes (16×100 mm), centrifuged at 1,200×g for 5 min and were frozen at −80° C. until assay. Following centrifugation, pellets were resuspended by homogenization in buffer consisting of 50 mM Tris (pH 7.7 at 25° C.), 120 mM NaCl and 5 mM KCl and then centrifuged at 32,000×g for 10 min. Following centrifugation, supernatants were discarded and pellets were resuspended in buffer consisting of 50 mM Tris (pH 7.4 at 25° C.), 150 mM NaCl and 5 mM KCl. Membrane homogenates (200 μl/plate) were incubated with 1 nM [^3H]-citalopram (specific activity=85 Ci/mMol) and increasing concentrations of test compounds for 1 hr at 25° C. in a total volume of 250 μl. The assay buffer consisted of 50 mM Tris (pH 7.4 at 25° C.), 120 mM NaCl and 5 mM KCl (pH 7.4 with conc. HCl). Plates were incubated for 1 hr at 25° C., then filtered through 0.5% PEI treated Whatman GF/B filters using a Brandel cell harvester. Filters were washed three times with 3 mL of ice-cold tris wash buffer. Non-specific binding was defined with 10 μM fluoxetine. Amount of radioligand bound in the presence and absence of competitor was analyzed by plotting (−)log drug concentration versus the amount of radioligand specifically bound. The midpoint of the displacement curve (IC50, nM), signifies the potency. Ki values were calculated using the method of Cheng and Prusoff (1973).

[2] = target: T2, human norepinephrine transporters (Homo sapiens, UniProt P23975); experiment: Norepinephrine Transporter Binding Assay ([3H]-nisoxetine displacement, hNET cell membranes); conditions: 2.7 nM [3H]-nisoxetine, 1 hr at 4° C., read-out: NE Reuptake (binding Ki)
T2 construct: host or cells: MDCK cells (also 'HEK-hNET cells'), membrane homogenates
Method: MDCK cells that stably express human norepinephrine transporters (HEK-hNET cells) were supplied by Receptor Biology, Inc. Pellets were resuspended by homogenization in buffer consisting of 50 mM Tris (pH 7.4 at 25° C.), 120 mM NaCl and 5 mM KCl. Membrane homogenates (200 μl/well, 8 ug protein) were incubated with 2.7 nM [^3H]-nisoxetine (specific activity=80 Ci/mMol) and increasing concentrations of test compounds for 1 hr at 4° C. in a total volume of 250 μl. The assay buffer consisted of 50 mM Tris (pH 7.4 at 25° C.), 120 mM NaCl and 5 mM KCl (pH 7.4 with conc. HCl). Plates were incubated for 1 hr at 4° C., then filtered through 0.5% PEI treated Whatman GF/B filters using a Brandel cell harvester. Filters were washed three times with 3 mL of ice-cold tris wash buffer. Non-specific binding was defined with 10 μM desipramine. Amount of radioligand bound in the presence and absence of competitor was analyzed by plotting (−)log drug concentration versus the amount of radioligand specifically bound. The midpoint of the displacement curve (IC50, nM), signifies the potency. Ki values were calculated using the method of Cheng and Prusoff (1973).

[3] = HEK-hSERT membranes, 1 nM [3H]-citalopram, 1 hr at 25° C., read-out: SERT (binding Ki)

T2 sequence (P23975 whole entry): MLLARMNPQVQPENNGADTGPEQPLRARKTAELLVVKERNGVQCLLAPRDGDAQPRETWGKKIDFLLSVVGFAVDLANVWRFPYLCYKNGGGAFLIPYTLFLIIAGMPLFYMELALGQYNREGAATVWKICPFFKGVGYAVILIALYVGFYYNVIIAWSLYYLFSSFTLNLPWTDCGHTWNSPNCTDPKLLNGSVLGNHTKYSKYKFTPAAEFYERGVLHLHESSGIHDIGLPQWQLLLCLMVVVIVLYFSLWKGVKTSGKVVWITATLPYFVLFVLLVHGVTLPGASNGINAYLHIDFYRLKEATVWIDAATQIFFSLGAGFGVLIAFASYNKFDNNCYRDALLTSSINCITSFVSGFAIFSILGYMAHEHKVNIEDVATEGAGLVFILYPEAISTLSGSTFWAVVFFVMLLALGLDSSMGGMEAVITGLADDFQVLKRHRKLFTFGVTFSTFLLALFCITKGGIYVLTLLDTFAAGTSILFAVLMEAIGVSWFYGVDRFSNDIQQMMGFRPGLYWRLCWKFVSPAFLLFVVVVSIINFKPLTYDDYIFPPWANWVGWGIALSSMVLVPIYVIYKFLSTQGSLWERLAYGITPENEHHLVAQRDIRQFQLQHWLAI
T1 sequence (P31645 whole entry): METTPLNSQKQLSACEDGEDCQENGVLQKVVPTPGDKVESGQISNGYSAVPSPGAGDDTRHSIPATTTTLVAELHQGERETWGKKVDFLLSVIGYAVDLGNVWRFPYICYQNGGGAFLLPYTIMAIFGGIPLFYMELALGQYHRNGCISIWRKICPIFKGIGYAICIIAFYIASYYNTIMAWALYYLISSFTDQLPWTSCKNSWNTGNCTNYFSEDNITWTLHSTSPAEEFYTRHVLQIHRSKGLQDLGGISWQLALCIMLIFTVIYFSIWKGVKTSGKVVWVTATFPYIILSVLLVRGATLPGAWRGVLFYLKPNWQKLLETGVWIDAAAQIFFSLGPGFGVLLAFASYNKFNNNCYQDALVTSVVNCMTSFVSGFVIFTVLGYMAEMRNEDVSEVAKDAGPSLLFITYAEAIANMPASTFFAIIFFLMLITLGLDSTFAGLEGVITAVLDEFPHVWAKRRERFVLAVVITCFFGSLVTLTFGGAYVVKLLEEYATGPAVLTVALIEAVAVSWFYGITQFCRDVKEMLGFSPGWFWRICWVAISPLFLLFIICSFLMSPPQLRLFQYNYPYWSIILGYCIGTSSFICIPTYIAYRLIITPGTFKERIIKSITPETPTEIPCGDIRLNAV

Ki [1, 3] [nM] | Structure (SMILES) | Ki [1] [nM] | Ki [2] [nM]
– | N#Cc1ccc2[nH]cc(C3CCC(N4CCOCC4)C3)c2c1 (stereo not drawn) [Compound 11, 3-(3-Morpholin-4-yl-cyclopentyl)-1H-indole-5-carbonitrile] | < 1 | > 1000
– | CCN(CC)C1CCC(c2c[nH]c3ccc(F)cc23)C1 (stereo not drawn) [Compound 35, Diethyl-[3-(5-fluoro-1H-indol-3-yl)-cyclopentyl]-amine] | 5 | > 1000
< 1 | Cn1cc(C2CCC(N3CCCCC3)C2)c2cc(C#N)ccc21 (stereo not drawn) [Compound 25, 1-Methyl-3-(3-piperidin-1-yl-cyclopentyl)-1H-indole-5-carbonitrile] | – | > 1000
– | CNC1CCC(c2cn(C)c3ccc(C#N)cc23)C1 (stereo not drawn) [Compound 17, 1-Methyl-3-(3-methylamino-cyclopentyl)-1H-indole-5-carbonitrile] | 1 to 10 | > 1000
1 to 10 | CN(Cc1ccccc1)C1CCC(c2c[nH]c3ccc(C#N)cc23)C1 (stereo not drawn) [Compound 12, 3-[3-(Benzyl-methyl-amino)-cyclopentyl]-1H-indole-5-carbonitrile] | – | 100 to 1000
– | Cn1cc(C2CCC(N3CCCC3)C2)c2cc(C#N)ccc21 (stereo not drawn) [Compound 24, 1-Methyl-3-(3-pyrrolidin-1-yl-cyclopentyl)-1H-indole-5-carbonitrile] | 1 to 10 | > 1000
< 1 | CN(Cc1ccccc1)C1CCC(c2cn(C)c3ccc(C#N)cc23)C1 (stereo not drawn) [Compound 27, 3-[3-(Benzyl-methyl-amino)-cyclopentyl]-1-methyl-1H-indole-5-carbonitrile] | – | > 1000
1 to 10 | Cn1cc(C2CCC(NCCc3ccccc3)C2)c2cc(C#N)ccc21 (stereo not drawn) [Compound 20, 1-Methyl-3-(3-phenethylamino-cyclopentyl)-1H-indole-5-carbonitrile] | – | 100 to 1000
1 to 10 | N#Cc1ccc2[nH]cc(C3CCC(N4Cc5ccccc5C4)C3)c2c1 (stereo not drawn) [Compound 7, 3-[3-(1,3-Dihydro-isoindol-2-yl)-cyclopentyl]-1H-indole-5-carbonitrile] | – | > 1000
1 to 10 | CN(CCc1ccccc1)C1CCC(c2c[nH]c3ccc(C#N)cc23)C1 (stereo not drawn) [Compound 10, 3-[3-(Methyl-phenethyl-amino)-cyclopentyl]-1H-indole-5-carbonitrile] | – | 100 to 1000
– | CN(C)C1CCC(c2cn(C)c3ccc(C#N)cc23)C1 (stereo not drawn) [Compound 21, 3-(3-Dimethylamino-cyclopentyl)-1-methyl-1H-indole-5-carbonitrile] | 1 to 10 | > 1000
– | CCNC1CCC(c2c[nH]c3ccc(C#N)cc23)C1 (stereo not drawn) [Compound 2, 3-(3-Ethylamino-cyclopentyl)-1H-indole-5-carbonitrile] | 1 to 10 | > 1000
1 to 10 | N#Cc1ccc2[nH]cc(C3CCC(N4CCc5ccccc5C4)C3)c2c1 (stereo not drawn) [Compound 8, 3-[3-(3,4-Dihydro-1H-isoquinolin-2-yl)-cyclopentyl]-1H-indole-5-carbonitrile] | – | 100 to 1000
1 to 10 | CCn1cc([C@H]2CC[C@H](N(C)C)C2)c2cc(C#N)ccc21 [Compound 57, (1S,3S)-3-(3-Dimethylamino-cyclopentyl)-1-ethyl-1H-indole-5-carbonitrile] | – | > 1000
< 1 | Cn1cc(C2CCC(N3CCOCC3)C2)c2cc(C#N)ccc21 (stereo not drawn) [Compound 26, 1-Methyl-3-(3-morpholin-4-yl-cyclopentyl)-1H-indole-5-carbonitrile] | – | > 1000
– | N#Cc1ccc2[nH]cc(C3CCC(N4CCCCC4)C3)c2c1 (stereo not drawn) [Compound 14, 3-(3-Piperidin-1-yl-cyclopentyl)-1H-indole-5-carbonitrile] | < 1 | > 1000
– | Fc1ccc2[nH]cc(C3CCC(N4CCCC4)C3)c2c1 (stereo not drawn) [Compound 36] | 1 to 10 | > 1000
– | CCN(C)C1CCC(c2c[nH]c3ccc(F)cc23)C1 (stereo not drawn) [Compound 34, Ethyl-[3-(5-fluoro-1H-indol-3-yl)cyclopentyl]-methyl-amine] | 1 to 10 | > 1000

Structure (SMILES) | Ki [1, 3] [nM] | Ki [1] [nM] | Ki [2] [nM]
CN(C)[C@H]1CC[C@@H](c2c[nH]c3ccc(F)cc23)C1 [Compound 55, (1S,3R)-3-(5-fluoro-1H-indol-3-yl)-cyclopentyl-dimethylamine] | 1 to 10 | – | > 1000
CN(C)C1CCC(c2c[nH]c3ccc(F)cc23)C1 (stereo not drawn) [Compound 33] | < 1 | – | > 1000
CN(C)[C@H]1CC[C@@H](c2c[nH]c3ccc(C#N)cc23)C1 [Compound 50, (1R,3S)-3-(3-dimethylaminocyclopentyl)-1H-indole-5-carbonitrile] | < 1 | – | > 1000
CN(C)[C@@H]1CC[C@@H](c2c[nH]c3ccc(C#N)cc23)C1 [Compound 51, (1R,3R)-3-(3-dimethylaminocyclopentyl)-1H-indole-5-carbonitrile] | < 1 | – | > 1000
CCN(C)C1CCC(c2c[nH]c3ccc(C#N)cc23)C1 (stereo not drawn) [Compound 4, 3-[3-(Ethyl-methyl-amino)-cyclopentyl]-1H-indole-5-carbonitrile] | 1 to 10 | – | > 1000
CN(C)[C@@H]1CC[C@H](c2c[nH]c3ccc(C#N)cc23)C1 [Compound 48, (1S,3R)-3-(3-dimethylaminocyclopentyl)-1H-indole-5-carbonitrile] | < 1 | – | > 1000
